Assay results published in patent publication US8008311B2, “Methods and compostions utilizing quinazolinones” (Cytokinetics, Inc., priority 2003, dated 2011).
Values joined by “and” are separate entries in the source; they are usually repeats but may differ in a detail not shown here. Identical values can stand only once. Like-named read-outs stand apart in the source and are kept apart here.

Assays:
[1] = molecular target: T1, KSP motor domain (Homo sapiens, UniProt P52732); test: KSP ATPase assay (IC50 / Ki); assay type: biochemical; conditions: for Ki: synthesized as single enantiomer
T1 construct: 100 nM KSP motor domain, 50 μg/ml microtubules
T1 sequence (P52732 18-359 limits assumed): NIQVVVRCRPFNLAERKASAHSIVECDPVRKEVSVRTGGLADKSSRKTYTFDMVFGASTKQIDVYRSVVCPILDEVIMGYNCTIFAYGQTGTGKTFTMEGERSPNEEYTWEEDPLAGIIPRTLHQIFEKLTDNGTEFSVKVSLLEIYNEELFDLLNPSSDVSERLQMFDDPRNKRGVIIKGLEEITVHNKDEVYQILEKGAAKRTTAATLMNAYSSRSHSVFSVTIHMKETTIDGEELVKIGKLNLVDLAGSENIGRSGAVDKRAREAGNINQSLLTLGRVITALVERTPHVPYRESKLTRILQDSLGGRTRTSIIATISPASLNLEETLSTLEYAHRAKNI
Description: One measure of inhibition is IC50, defined as the concentration of the composition at which the activity of KSP is decreased by fifty percent. Preferred compositions have IC50's of less than about 1 mM, with preferred embodiments having IC50's of less than about 100 μM, with more preferred embodiments having IC50's of less than about 10 μM, with particularly preferred embodiments having IC50's of less than about 1 μM, and especially preferred embodiments having IC50's of less than about 100 nM, and with the most preferred embodiments having IC50's of less than about 10 nM. Measurement of IC50 is done using an ATPase assay.
The Ki for a compound is determined from the IC50 based on three assumptions. First, only one compound molecule binds to the enzyme and there is no cooperativity. […] Third, the enzymatic rate of the enzyme-inhibitor complex is zero. The rate (i.e., compound concentration) data are fitted to the equation: […]
Where V is the observed rate, Vmax is the rate of the free enzyme, I0 is the inhibitor concentration, E0 is the enzyme concentration, and Kd is the dissociation constant of the enzyme-inhibitor complex.
Measurement of a composition's IC50 for KSP activity uses an ATPase assay. The following solutions are used: Solution 1 consists of 3 mM phosphoenolpyruvate potassium salt (Sigma P-7127), 2 mM ATP (Sigma A-3377), 1 mM IDTT (Sigma D-9779), 5 μM paclitaxel (Sigma T-7402), 10 ppm antifoam 289 (Sigma A-8436), 25 mM Pipes/KOH pH 6.8 (Sigma P6757), 2 mM MgC12 (VWR JT400301), and 1 mM EGTA (Sigma E3889). Solution 2 consists of 1 mM NADH (Sigma N8129), 0.2 mg/ml BSA (Sigma A7906), pyruvate kinase 7 U/ml, L-lactate dehydrogenase 10 U/ml (Sigma P0294), 100 nM KSP motor domain, 50 μg/ml microtubules, 1 mM DTT (Sigma D9779), 5 μM paclitaxel (Sigma T-7402), 10 ppm antifoam 289 (Sigma A-8436), 25 mM Pipes/KOH pH 6.8 (Sigma P6757), 2 mM MgC12 (VWR JT4003-01), and 1 mM EGTA (Sigma E3889). Serial dilutions (8-12 two-fold dilutions) of the composition are made in a 96-well microtiter plate (Corning Costar 3695) using Solution 1. Following serial dilution each well has 50 μl of Solution 1. The reaction is started by adding 50 μl of solution 2 to each well. This may be done with a multichannel pipettor either manually or with automated liquid handling devices. The microtiter plate is then transferred to a microplate absorbance reader and multiple absorbance readings at 340 nm are taken for each well in a kinetic mode. The observed rate of change, which is proportional to the ATPase rate, is then plotted as a function of the compound concentration. For a standard IC50 determination the data acquired is fit by the following four parameter equation using a nonlinear fitting program (e.g., Grafit 4): […]
Where y is the observed rate and x the compound concentration.

[2] = tested on: A549 cells; conditions: cited from earlier work
[3] = tested on: SKOV3 tumor xenograft; test: SKOV3 tumor xenograft in nude mice; assay type: in vivo; conditions: for Mice with Partial Tumor Shrinkage / Mortalities: 8 mice at start
Description: Female nude mice weighing approximately 20 g were implanted s.c. by trocar with fragments of human tumor carcinomas harvested from s.c. growing tumors in nude mice host. When the tumors were approximately 77 mg in size, the animals were pair matched into treatment and control groups. Each group contained 8 tumored mice, each of which was ear-tagged and followed individually throughout the experiment. Initial doses (10 mL/kg of a 66 mM Citrate buffer, pH 5.0/0.9% Saline/10% Tween 80 formulation of each test compound having a maximum concentration of 5 mg/mL) were given on Day 1 following pair matching, dosing at the levels and schedules indicated.
Mice were weighed twice weekly, and tumor measurements were taken by calipers twice weekly, starting on Day 1. These tumor measurements were converted to mg tumor weight by a well-known formula, W^2×L/2. The experiment was terminated when the control group tumor size reached an average of 1 gram. Upon termination, the mice were weighted, sacrificed and their tumors excised. Tumors were weighted and the mean treated tumor weight per group was calculated. In this model, the change in mean treated tumor weight/the change in mean control tumor weight×100% (ΔT/ΔC) was subtracted from 100% to give the tumor growth inhibition (TGI) for each group.

[4] = tested on: SKOV3 tumor xenograft; test: SKOV3 tumor xenograft in nude mice; assay type: in vivo
[5] = tested on: Skov-3 cells (human ovarian cancer); test: FACS analysis of cell cycle stage by DNA content; assay type: cell-based; conditions: 24 hours; 10 nM paclitaxel, 400 nM quinazolinone 1, 200 nM quinazolinone 2
Description: FACS analysis to determine cell cycle stage by measuring DNA content was performed as follows. Skov-3 cells (human ovarian cancer) were split 1:10 for plating in 10 cm dishes and grown to subconfluence with RPMI 1640 medium containing 5% fetal bovine serum (FBS). The cells were then treated with either 10 nM paclitaxel, 400 nM quinazolinone 1, 200 nM quinazolinone 2, or 0.25% DMSO (vehicle for compounds) for 24 hours. Cells were then rinsed off the plates with PBS containing 5 mM EDTA, pelleted, washed once in PBS containing 1% FCS, and then fixed overnight in 85% ethanol at 4° C. Before analysis, the cells were pelleted, washed once, and stained in a solution of 10 μg propidium iodide and 250 μg of ribonuclease (RNAse) A per milliliter at 37° C. for half an hour. Flow cytometry analysis was performed on a Becton-Dickinson FACScan, and data from 10,000 cells per sample was analyzed with Modfit software.

[6] = enantiomer 1 from chiral chromatography, read-out: IC50 (μM) Enantiomer 1
[7] = enantiomer 2 from chiral chromatography, read-out: IC50 (μM) Enantiomer 2
[8] = racemate, read-out: IC50 (μM) Racemate
[9] = R enantiomer, read-out: Ki (μM) R enantiomer
[10] = S enantiomer, read-out: Ki (μM) S enantiomer
[11] = 50 mg/kg every 3 days × 4, i.v.
[12] = 80 mg/kg every 3 days × 4, i.v.
[13] = 20 mg/kg daily × 5, i.p., Tables A-D

Compound: CCC(c1nc2ccccc2c(=O)n1Cc1ccccc1)N(CCN(C)C)C(=O)c1cccc2ccccc12 (single isomer, unassigned)
- IC50 [1, 6]: > 40 µM
- IC50 [1, 7]: 6.6 µM
- IC50 [1, 8]: 12.7 µM

Compound: CCC(c1nc2ccccc2c(=O)n1Cc1ccccc1)N(CCN(C)C)C(=O)c1ccc(Br)cc1 (single isomer, unassigned)
- IC50 [1, 6]: 0.28 µM
- IC50 [1, 7]: 0.03 µM
- IC50 [1, 8]: 0.06 µM

Compound: COc1cccc2c1C(=O)c1c(O)c3c(c(O)c1C2=O)C[C@@](O)(C(=O)CO)C[C@@H]3O[C@H]1C[C@H](N)[C@H](O)[C@H](C)O1 [doxorubicin]
- GI50 [2]: 63 nM

Compound: CC(c1nc2ccccc2c(=O)n1Cc1ccccc1)N(CCN)C(=O)c1ccc(Br)cc1 (centres unmarked)
- Ki [1, 9]: < 0.1 µM
- Ki [1, 10]: 2 µM

Compound: CCC(c1nc2cc(F)ccc2c(=O)n1Cc1ccccc1)N(CCCN)C(=O)c1ccc(C)cc1 (centres unmarked) [Compound 2]
- Final Tumor Weight (Mean ± SEM) [3, 11]: 340.8 ± 93.0 mg
- Maximum Weight Loss [3, 11]: None
- Tumor Growth Inhibition [3, 11]: 81.5%
- Mice with Partial Tumor Shrinkage [3, 11]: 0
- Mortalities [3, 11]: 0

Compound: O=c1[nH]cc(F)c(=O)[nH]1 [5-fluorouracil]
- GI50 [2]: 1000 nM

Compound: CCC(c1nc2cc(Cl)ccc2c(=O)n1Cc1ccccc1)N(CCN)C(=O)c1ccc(Br)cc1 (centres unmarked)
- Ki [1, 9]: < 0.05 µM
- Ki [1, 10]: > 0.5 µM

Compound: CCC(c1nc2cc(Cl)ccc2c(=O)n1Cc1ccccc1)N(CCCN(C)C)C(=O)c1ccc(Br)cc1 (centres unmarked) [Compound 5]
- Final Tumor Weight (Mean ± SEM) ([3]; 25 mg/kg daily × 5, i.v.): 405.6 ± 124.8 mg
- Maximum Weight Loss ([3]; 25 mg/kg daily × 5, i.v.): None
- Mean % Tumor Shrinkage ([3]; 25 mg/kg daily × 5, i.v.): 56.3%
- Tumor Growth Inhibition ([3]; 25 mg/kg daily × 5, i.v.): 71.0%
- Mice with Partial Tumor Shrinkage ([3]; 25 mg/kg daily × 5, i.v.): 1
- Mortalities ([3]; 25 mg/kg daily × 5, i.v.): 0

Compound: CCC(c1nc2cc(Cl)ccc2c(=O)n1Cc1ccccc1)N(CCCN)Cc1ccc(Br)cc1 (centres unmarked) [Compound 1]
- Final Tumor Weight (Mean ± SEM) [4, 12]: 554.3 ± 76.8 mg
- Maximum Weight Loss [3, 12]: None
- Tumor Growth Inhibition [3, 12]: 41.5%
- Mice with Partial Tumor Shrinkage [3, 12]: 0
- Mortalities [3, 12]: 1

Compound: CCC(c1nc2cc(Cl)ccc2c(=O)n1Cc1ccccc1)N(CCN)Cc1ccc(C)cc1 (centres unmarked) [Compound 4]
- Final Tumor Weight (Mean ± SEM) ([3]; 4 mg/kg weekly × 3, i.v.): 726.9 ± 147.2 mg
- Maximum Weight Loss ([3]; 4 mg/kg weekly × 3, i.v.): 0.02%
- Tumor Growth Inhibition ([3]; 4 mg/kg weekly × 3, i.v.): 40.1%
- Mice with Partial Tumor Shrinkage ([3]; 4 mg/kg weekly × 3, i.v.): 0
- Mortalities ([3]; 4 mg/kg weekly × 3, i.v.): 1

Compound: CCC(c1nc2cc(Cl)ccc2c(=O)n1Cc1ccccc1)N(CCCN)C(=O)c1ccc(C)cc1 (racemic)
- IC50 ([1]; R isomer, read-out: R Isomer IC50): < 0.05 µM
- IC50 ([1]; S isomer, read-out: S Isomer IC50): > 0.5 µM
- IC50 ([1]; racemic, read-out: Racemic I C50): < 0.05 µM

Compound: CC(=O)O[C@H]1C(=O)[C@@]2(C)[C@H]([C@H](OC(=O)c3ccccc3)[C@]3(O)C[C@H](OC(=O)[C@H](O)[C@@H](NC(=O)c4ccccc4)c4ccccc4)C(C)=C1C3(C)C)[C@]1(OC(C)=O)CO[C@@H]1C[C@@H]2O [Taxol, paclitaxel, reference compound]
- Maximum Weight Loss [3, 13]: 16.5% and 7.49% and 12.26% and 8.77%
- Mean % Tumor Shrinkage [3, 13]: 27.9% and 43.5% and 44.4%
- Tumor Growth Inhibition ([3]; 20 mg/kg daily × 5, i.p., separate experiments Tables A-D): 91.7% and 99.7% and 87.1% and 73.0%
- GI50 [2]: 4 nM
- shift of cell cycle stage (DNA content) [5]: caused a shift in the population of cells from a G0/G1 cell cycle stage (2n DNA content) to a G2/M cell cycle stage (4n DNA content)

Compound: CC(c1nc2ccccc2c(=O)n1Cc1ccccc1)N(CCN(C)C)C(=O)c1ccc(Br)cc1 (single isomer, unassigned)
- IC50 [1, 6]: > 40 µM
- IC50 [1, 7]: 1.3 µM
- IC50 [1, 8]: 2.6 µM

Compound: NC(=O)NO [hydroxyurea]
- GI50 [2]: 500000 nM

Compound: CCC(c1nc2cc(Cl)ccc2c(=O)n1Cc1ccccc1)N(CC1CNC1)C(=O)c1ccc(C)cc1 (centres unmarked) [Compound 3]
- Final Tumor Weight (Mean ± SEM) ([4]; 60 mg/kg daily × 5, i.v.): 806.1 ± 163.8 mg
- Maximum Weight Loss ([3]; 60 mg/kg daily × 5, i.v.): 2.76%
- Tumor Growth Inhibition ([3]; 60 mg/kg daily × 5, i.v.): 48.3%
- Mice with Partial Tumor Shrinkage ([3]; 60 mg/kg daily × 5, i.v.): 0
- Mortalities ([3]; 60 mg/kg daily × 5, i.v.): 1
